According to patent US7074811B2 (SmithKline Beecham p.l.c., priority 2000, dated 2006):

Experiment: Hygroscopicity of the Hydrochloride (weight gain at 75% relative humidity)
Format: physicochemical
Conditions: 43 days

## CN(CCOc1ccc(CC2SC(=O)NC2=O)cc1)c1ccccn1.Cl (centres unmarked) [Hydrochloride, 5-[4-[2-(N-methyl-N-(2-pyridyl)amino)ethoxy]benzyl]thiazolidine-2,4-dione hydrochloride]
75% relative humidity at 21° C.
  hygroscopicity classification: non-hygroscopic (<2%)
75% relative humidity atmosphere at 21° C., constant weight attained, sample of Example 1
  percentage weight gain: 0.4%
